According to patent publication US20200009197A1, “COMPOSITIONS AND METHODS FOR THE REPROGRAMMING OF CELLS INTO CARDIOMYOCYTES” (Duke University, priority 2014, published 2020):

Tests used:
[1] = cited from earlier work
[2] = during controlled therapy; cited from earlier work
[3] = tested on: neonatal cardiac fibroblasts; assay: qPCR of cardiac and pluripotency gene expression in neonatal cardiac fibroblasts (with or without miR combo transfection); type: cell-based, Mouse (C57BL/6)
Experimental: Mouse (C57BL/6) neonatal cardiac fibroblasts or tail tip fibroblasts were isolated from 2 day old mouse neonates according to known methods e.g., outlined in Jayawardena et al [Jayawardena T, Mirotsou M, Dzau V J. Direct reprogramming of cardiac fibroblasts to cardiomyocytes using microRNAs. Methods in molecular biology. 2014; 1150:263-272]. Cells were cultured in growth media containing DMEM (ATCC) supplemented with 15% v/v FBS and 1% v/v penicillin/streptomycin. Cells were used at passage 1 or passage 2.
Cells were seeded at 5000 cells/cm^2 in growth media. Twenty-four hours later growth media was replaced with chemically defined reprogramming media (Advanced DMEM/F12, 0.2% w/v BSA, 250 μM Ascorbic Acid, 1× Insulin-Transferrin-Selenium, 1× L-Glutamine, 1× Penicillin-Streptomycin). Fresh media was added every two days.
Fibroblasts were seeded into a 24 well-plate at 9,000 cells/well. […]
The GM comprises the following: DMEM (ATCC#30-2002), 15% v/v embryonic stem cell qualified fetal bovine serum, and 1× penicillin/streptomycin. […] Differentiation was assessed by qPCR, immunocytochemistry, and flow cytometry.

SMILES | soluble to, in DMSO ([1]; DMSO) | soluble to, in ethanol [1] | other results
Cc1cccc(-c2nn(C(=S)Nc3ccccc3)cc2-c2ccnc3ccccc23)n1 [A83-01, 3-(6-Methyl-2-pyridinyl)-N-phenyl-4-(4-quinolinyl)-1H-pyrazole-1-c arbothioamide] | 100 mM | – | –
O=C(O)C=C(CCc1ccc(Cl)cc1)c1ccccc1 [PS48, 5-(4-Chloro-phenyl)-3-phenyl-pent-2-enoic acid] | – | – | solubility in DMSO ([1]; DMSO): soluble in DMSO
COC(=O)C1=C(C)NC(C)=C([N+](=O)[O-])[C@@H]1c1ccccc1C(F)(F)F [R(+)Bay K 8644, R-(+)-1,4-Dihydro-2,6-dimethyl-5-nitro-4-[2-(trifluoromethyl)phenyl]-3-pyridinecarboxylic acid methyl ester] | 100 mM | 100 mM | –
O=C(O)C(Cc1c[nH]c2ccccc12)N1C(=O)c2ccccc2C1=O (stereo not drawn) [RG108, 2-(1,3-Dioxo-1,3-dihydro-2H-isoindol-2-yl)-3-(1H-indol-3-yl)propionic acid] | 100 mM | 100 mM | –
CCCC(CCC)C(=O)O [Valproic acid, 2-propylpentanoic acid] | – | – | serum or plasma concentrations [2]: 20 to 100 mg/L
O=C1O[C@H]([C@@H](O)CO)C(O)=C1O [ascorbic acid] | – | – | effects of miR-combo upon cardiac gene expression ([3]; added to growth media): augmented; additive effect on cardiac gene expression at gene and protein level ([3]; increasing concentration): increased the additive effect
